Several values for one entry are separate records, joined by “and”; a condition that tells them apart may be missing. Equal entries are not always repeated. Entries after “also recorded” stand apart in the source; their conditions may differ. Where two headings read alike, the source gives them in different places.
How the values were obtained:
[1] = test system: patients; settings: cited from earlier work; for incidence of diarrhea / incidence of second malignancy: ref 10 (ibrutinib), 14 (acalabrutinib), 15 (zanubrutinib)
[2] = test system: patients with r/r MCL; settings: cited from earlier work
[3] = pharmacokinetics in patients with r/r MCL
[4] = test system: patients with r/r MCL; test: phase 1/2 study efficacy; assay type: in vivo, human
[5] = test system: patients with r/r MCL; test: phase 1/2 study safety; assay type: in vivo, human
[6] = PET assessment, median follow-up 26 months
[7] = median follow-up of 26.7 months
[8] = 29 patients with best response CR
[9] = IRC-assessed, n=106, follow-up 23.8 mo
[10] = Investigator-assessed, n=106, follow-up 23.8 mo
[11] = PET assessment, median follow-up 18.4 months

CC#CC(=O)N1CCC[C@H]1c1nc(-c2ccc(C(=O)Nc3ccccn3)cc2)c2c(N)nccn12 [acalabrutinib]
major hemorrhage [1]: 3.0%
incidence of diarrhea [1]: 31%
incidence of second malignancy [1]: 12%
CR [2, 6]: 43%
ORR [2, 6]: 81%
median DOR ([2]; acalabrutinib trial): 26 months
median PFS ([2]; acalabrutinib trial): 20 months

C=CC(=O)N1CCC[C@@H](n2nc(-c3ccc(Oc4ccccc4)cc3)c3c(N)ncnc32)C1 [ibrutinib]
grade 3 or greater atrial fibrillation and atrial flutter [1]: 4%
grade 3 or higher hypertension events [1]: 8%
median TTR [2]: 1.9 months
ORR in patients with bulky tumors [2, 7]: 67%
ORR in patients with ≥2 prior treatments [2, 7]: 63%
ORR ([2]; pivotal study 1104, r/r MCL, median 15.3-month follow-up, CT-based): 65.8%
median DOR ([2]; pivotal study 1104): 17.5 months
median PFS ([2]; pivotal study 1104): 13.9 months
CR ([2]; pivotal study 1104, median 15.3-month follow-up, CT-based): 17.1%

C=CC(=O)N1CCC(c2ccc(C(N)=O)c(-c3ccc(Oc4ccccc4)cc3)n2)CC1 [orelabrutinib]
Tmax ([3]; human, in vivo, 150 mg, Tmax (median, minimum-maximum), Day 1 single, 150 mg): 2 h
Coefficients of variation of pharmacokinetic parameters ([3]; patients with r/r MCL): < 30%
DOR rate at 24 months [4, 8]: ~80%
OS at 24 months [4, 8]: ~100%
PFS rate at 24 months [4, 8]: ~80%
median reduction percentage in the SPD of target lesions ([4]; CT/MRI, baseline median SPD 2514.4 mm^2): 87.2%
patients with objective response ([4]; IRC assessment, n=106): 86 patients
median DOR ([4]; IRC-assessed): 22.9 months
CR [4, 9]: 27.4%
DCR [4, 9]: 86.8 (78.8-92.6) %
PD [4, 9]: 8.5%
PR [4, 9]: 53.8%
ORR ([4]; IRC-assessed, n=106, median follow-up 23.8 mo): 81.1 (72.4-88.1) %
CR ([4]; IRC, follow-up 10.5 mo): 25.5%
CR [4, 10]: 34.9%
DCR [4, 10]: 87.7 (79.9-93.3) %
ORR [4, 10]: 82.1 (73.4-88.9) %
PD [4, 10]: 5.7%
PR [4, 10]: 47.2%
median PFS ([4]; full analysis set): 22.0 months and 22 months
patients with objective response ([4]; investigator assessment, n=106): 87 patients
median TTR ([4]; n=106): 1.9 months
ORR (95% CI), IRC ([4]; subgroup Age ≥65): 83.3%
ORR (95% CI), IRC ([4]; subgroup Baseline Splenomegaly Yes): 66.7%
ORR (95% CI), IRC ([4]; subgroup Ki-67 ≥30%): 79.4%
ORR (95% CI), IRC ([4]; subgroup Prior CD20 Antibody Therapy No): 91.7%
ORR (95% CI), IRC ([4]; subgroup Prior lines of therapy ≥2): 75.9%
ORR (95% CI), IRC ([4]; subgroup Tumor Stage III/IV): 80%
ORR (95% CI), IRC ([4]; subgroup longest target lesion ≥10 cm (bulky disease)): 81.8%
atrial fibrillation, grade 1 ([5]; cycle 1, deemed unrelated to treatment): 1 episode
AEs leading to discontinuation of treatment ([5]; n=106): 4.7%
Alanine aminotransferase increase (any grade): Incidence ([5]; n=106): 10.4%
Alanine aminotransferase increase (any grade): Number of patients ([5]; n=106): 11
All TEAEs: Incidence ([5]; n=106): 95.3%
All TEAEs: Number of patients ([5]; n=106): 101
All grade ≥3 TEAEs: Incidence ([5]; n=106): 51.9%
All grade ≥3 TEAEs: Number of patients ([5]; n=106): 55
Anemia (any grade): Incidence ([5]; n=106): 19.8%
Anemia (any grade): Number of patients ([5]; n=106): 21
Anemia (grade ≥3): Incidence ([5]; n=106): 7.5%
Anemia (grade ≥3): Number of patients ([5]; n=106): 8
Cough (any grade): Incidence ([5]; n=106): 16.0%
Cough (any grade): Number of patients ([5]; n=106): 17
Diarrhea (any grade): Incidence ([5]; n=106): 11.3%
Diarrhea (any grade): Number of patients ([5]; n=106): 12
Disease progression (grade ≥3 AE): Incidence ([5]; n=106): 4.7%
Disease progression (grade ≥3 AE): Number of patients ([5]; n=106): 5
Grade 3 or higher infection events ([5]; n=106): 14.2%
Hematuria (any grade): Incidence ([5]; n=106): 10.4%
Hematuria (any grade): Number of patients ([5]; n=106): 11
Hyperglycemia (any grade): Incidence ([5]; n=106): 12.3%
Hyperglycemia (any grade): Number of patients ([5]; n=106): 13
Hypertension (any grade): Incidence ([5]; n=106): 17%
Hypertension (any grade): Number of patients ([5]; n=106): 18
Hypertension (grade ≥3): Incidence ([5]; n=106): 5.7%
Hypertension (grade ≥3): Number of patients ([5]; n=106): 6
Hypoalbuminemia (any grade): Incidence ([5]; n=106): 10.4%
Hypoalbuminemia (any grade): Number of patients ([5]; n=106): 11
Hypokalemia (any grade): Incidence ([5]; n=106): 17.0%
Hypokalemia (any grade): Number of patients ([5]; n=106): 18
Hypokalemia (grade ≥3): Incidence ([5]; n=106): 2.8%
Hypokalemia (grade ≥3): Number of patients ([5]; n=106): 3
Leukocytosis (grade ≥3): Incidence ([5]; n=106): 3.8%
Leukocytosis (grade ≥3): Number of patients ([5]; n=106): 4
Leukopenia (any grade): Incidence ([5]; n=106): 19.8%
Leukopenia (any grade): Number of patients ([5]; n=106): 21
Lymphocytosis (grade ≥3): Incidence ([5]; n=106): 3.8%
Lymphocytosis (grade ≥3): Number of patients ([5]; n=106): 4
Neutropenia (any grade): Incidence ([5]; n=106): 24.5%
Neutropenia (any grade): Number of patients ([5]; n=106): 26
Neutropenia (grade ≥3): Incidence ([5]; n=106): 8.5%
Neutropenia (grade ≥3): Number of patients ([5]; n=106): 9
Pneumonia (any grade): Incidence ([5]; n=106): 11.3%
Pneumonia (any grade): Number of patients ([5]; n=106): 12
Pneumonia (grade ≥3): Incidence ([5]; n=106): 5.7%
Pneumonia (grade ≥3): Number of patients ([5]; n=106): 6
Pneumonitis (any grade): Incidence ([5]; n=106): 17.9%
Pneumonitis (any grade): Number of patients ([5]; n=106): 19
Pneumonitis (grade ≥3): Incidence ([5]; n=106): 3.8%
Pneumonitis (grade ≥3): Number of patients ([5]; n=106): 4
Prolonged QT interval (any grade): Incidence ([5]; n=106): 11.3%
Prolonged QT interval (any grade): Number of patients ([5]; n=106): 12
Pyrexia (any grade): Incidence ([5]; n=106): 12.3%
Pyrexia (any grade): Number of patients ([5]; n=106): 13
Rash (any grade): Incidence ([5]; n=106): 17.0%
Rash (any grade): Number of patients ([5]; n=106): 18
SAE Pneumonia: Incidence ([5]; n=106): 5.7%
SAE Pneumonitis: Incidence ([5]; n=106): 4.7%
SAE Progressive disease: Incidence ([5]; n=106): 4.7%
Soft tissue infection (grade ≥3): Incidence ([5]; n=106): 2.8%
Soft tissue infection (grade ≥3): Number of patients ([5]; n=106): 3
Thrombocytopenia (any grade): Incidence ([5]; n=106): 34.0%
Thrombocytopenia (any grade): Number of patients ([5]; n=106): 36
Thrombocytopenia (grade ≥3): Incidence ([5]; n=106): 13.2%
Thrombocytopenia (grade ≥3): Number of patients ([5]; n=106): 14
Upper respiratory tract infection (any grade): Incidence ([5]; n=106): 27.4%
Upper respiratory tract infection (any grade): Number of patients ([5]; n=106): 29
Weight increase (any grade): Incidence ([5]; n=106): 11.3%
Weight increase (any grade): Number of patients ([5]; n=106): 12
bleeding events (any) ([5]; n=106): 34.9%
bleeding events grade 1 ([5]; n=106): 31.1%
bleeding events grade 2 ([5]; n=106): 3.8%
death from infection due to acute myeloid leukemia ([5]; n=106): 1%
death from lung infection due to the common cold ([5]; n=106): 1%
deaths due to drug-related AEs (fatal TRAEs) ([5]; n=106): no fatal TRAEs were reported; also recorded: No deaths due to drug-related AEs were reported
deaths from AEs deemed unrelated to treatment ([5]; n=106): 2%
deaths from disease progression ([5]; n=106): 15%
diarrhea judged as related to treatment ([5]; n=106): 3.8%
discontinued treatment because of drug-related AEs ([5]; n=106): 2.8%
drug-related grade 3 or higher infection events ([5]; n=106): 6.6%
drug-related infection events ([5]; n=106): 34%
drug-related pneumonia ([5]; n=106): 7.5%
drug-related upper respiratory tract infection ([5]; n=106): 13.2%
grade 3 or higher second primary malignancy, atrial fibrillation/flutter, diarrhea, or bleeding events ([5]; n=106): No grade 3 or higher second primary malignancy, atrial fibrillation/flutter, diarrhea, or bleeding events were observed
major hemorrhage (grade 3 or higher, serious, or any grade CNS bleeding) ([5]; n=106): No patient experienced major hemorrhage
microscopic hematuria ([5]; n=106): 6.6%
patients who died during the study ([5]; n=106): 27 patients
patients with treatment-related grade 3 or higher AEs ([5]; n=106): 34.9%
petechiae ([5]; n=106): 4.7%
proportion of AEs that were grade 1 or 2 ([5]; n=106): 89%
purpura ([5]; n=106): 4.7%
rate of second malignancy ([5]; n=106): 2.8%
second primary malignancy ([5]; n=106): 3 patients
treatment-related AEs leading to dose interruption ([5]; n=106): 17%
treatment-related anemia ([5]; n=106): 14.2%
treatment-related decreases in neutrophils ([5]; n=106): 22.6%
treatment-related decreases in platelets ([5]; n=106): 32.1%
treatment-related decreases in white blood cells ([5]; n=106): 18.9%
treatment-related hypertension ([5]; n=106): 15.1%

C=CC(=O)N1CCC([C@@H]2CCNc3c(C(N)=O)c(-c4ccc(Oc5ccccc5)cc4)nn32)CC1 [zanubrutinib]
major hemorrhage [1]: 5.4%
rate of treatment discontinuation [1]: 12.5%
incidence of diarrhea [1]: 23%
incidence of second malignancy [1]: 14%
CR [2, 11]: 68.6%
ORR [2, 11]: 84%
median TTR [2]: 2.8 months
median DOR ([2]; zanubrutinib trial): 19.5 months
median PFS ([2]; zanubrutinib trial): 22.1 months

From PMC10432605 (Blood Advances, 2023)
